Source: patent US20130085133A1, “ANTI-VIRAL TREATMENT AND ASSAY TO SCREENFOR ANTI-VIRAL AGENT” (Sourthern Research Institute Office of Commercialization …, priority 2010, published 2013)

Columns and labels:
[1] = test system: respiratory syncytial virus (RSV) strain Long; assay: microbe, parasite or virus in culture; conditions: human respiratory syncytial virus, HEp-2, 144 h
[2] = cytotoxicity assay (percent viability of HEp-2 cells, Cell Titer-Glo); conditions: human
Description: Test compounds were evaluated by measuring their antiviral activity, cell toxicity, and selectivity. Test compounds were serially diluted in a plate to plate matrix or “stacked plate” matrix. All 320 compounds in a source plate were diluted together resulting in a 10 point dose response dilution series. It was visualized as a serial dilution series proceeding vertically through a stack of plates with the high dose plate on top and the low dose plate on the bottom.
Following the six day incubation period, the assay plates were equilibrated to room temperature for 30 min and an equal volume (30 μL) of Cell Titer-Glo reagent (Promega Inc.) was added to each well using a WellMate (Matrix, Hudson, N.H.) and plates were incubated for an additional 10 min at room temperature. At the end of the incubation, luminescence was measured using a Perkin Elmer Envision™ multi-label reader (PerkinElmer, Wellesley, Mass.) with an integration time of 0.1 s.
Data was analyzed using ActivityBase software (IDBS, Inc, Guilford, UK). thirty two control wells containing cells only and twenty four wells containing cells and virus were included on each assay plate and used to calculate Z′ value for each plate and to normalize the data on a per plate basis. […] Eight ribavirin positive control wells were included on each plate for quality control purposes, but were not used in Z′ calculations. […] In the toxicity assay, results are described as percent viability and the calculation is the same.
An EC50 (for CPE inhibition) and IC50 (for cell viability) were calculated for each substance using the 4 parameter Levenburg-Marquardt algorithm with parameter A locked at 0 and parameter B locked at 100. Standard deviation, normalized chi2 and hill slope were used to evaluate the curves. Values were not extrapolated beyond the tested range of concentrations.

Structure (SMILES) | EC50 [1] | CC50 at 6 days ([2]; HEp-2 cells) | CC50 at 6 days [2] [µg/mL]
Cn1c(SC/C=C/c2ccccc2)nnc1-c1cccs1 [AB00318335] | 24.2 µg/mL | > 25 µg/mL | –
COC(=O)C1=C(C)N(Cc2ccccc2)C(=O)NC1c1ccc(C(=O)OC)cc1 (centres unmarked) [AB00318401] | 2.39 µg/mL | > 25 µg/mL | –
CCCCC(=O)Nc1cccc(NC(=O)c2ccc(OCC)c([N+](=O)[O-])c2)c1 [AB00318606] | 23.5 µg/mL | > 25 µg/mL | –
Cc1ccnc(NCc2cc(Br)ccc2O)c1 [AB00318952] | 22.2 µg/mL | > 25 µg/mL | –
Cc1ccccc1C(=O)NC(=S)Nc1cccc(F)c1 [AB00319373] | 24.4 µg/mL | > 25 µg/mL | –
C=CCNc1cc(N2CCN(C(=O)c3ccc(C)cc3)CC2)ccc1[N+](=O)[O-] [AB00319534] | 13.8 µg/mL | > 25 µg/mL | –
CNc1cc(N2CCCC2)ccc1[N+](=O)[O-] [AB00322577] | 18.7 µg/mL | > 25 µg/mL | –
O=Cc1cc(Br)c(Sc2ncccn2)o1 [AB00326733] | 18.8 µg/mL | > 25 µg/mL | –
CCOC(=O)C1=C(C)Nc2ncnn2C1c1ccc(OC)c(OCC)c1 (centres unmarked) [AB00335740] | 21.1 µg/mL | > 25 µg/mL | –
COc1ccc(-c2nc3ccccc3s2)cc1O [AB00339206] | 21.9 µg/mL | > 25 µg/mL | –
CN(C)C(=O)Oc1ccc2ccccc2c1Cl [AB00339302] | 12.3 µg/mL | – | > 25
Cc1cc(C)cc(C(=O)Nc2ccc(C#N)cc2)c1 [AB00340723] | 19.8 µg/mL | > 25 µg/mL | –
N#C/C(=C\c1ccc(-c2ccc(Cl)c(Cl)c2)o1)C(N)=S [AB00344427] | 17.9 µg/mL | > 25 µg/mL | –
Fc1cccc(NC(=S)NNC(=S)Nc2ccc(Cl)cc2)c1 [AB00348154] | 10.6 µg/mL | > 25 µg/mL | –
CCOC(=O)c1ccc(NC(=O)NCCc2ccccc2OC)cc1 [AB00348268] | 21.4 µg/mL | > 25 µg/mL | –
CC(=O)c1cccc(NC(=S)NNC(=S)Nc2ccc(F)cc2F)c1 [AB00349666] | 21.2 µg/mL | > 25 µg/mL | –
CCOC(=O)c1ccc(NC(=O)NC(C)C2CCCO2)cc1 (centres unmarked) [AB00349705] | 19.2 µg/mL | > 25 µg/mL | –
COC(=O)c1sc2cc(NC(=S)NCCCN3CCCC3=O)ccc2c1Cl [AB00351451] | 17.5 µg/mL | > 25 µg/mL | –
COc1ccc(-c2ccc(-c3noc(-c4ccco4)n3)c(OC)n2)cc1 [AB00353001] | 18.4 µg/mL | > 25 µg/mL | –
CCOC(=O)C1=C(c2ccccc2)NC(=S)NC1c1ccccc1OCC(=O)Nc1ccccc1 (centres unmarked) [AB00355044] | 6.39 µg/mL | > 25 µg/mL | –
Cc1ccc(NC(=O)CN2CCCC2)c(Br)c1 [AB00358122] | 20.1 µg/mL | > 25 µg/mL | –

Structure (SMILES) | EC50 [1] | CC50 at 6 days ([2]; HEp-2 cells) | CC50 at 6 days [2] [µg/mL]
Cc1nc(N)sc1-c1nnc(Nc2ccccc2)s1 [AB00358926] | 12.7 µg/mL | > 25 µg/mL | –
CC(=O)Nc1ccc(C(=O)OCc2ccc(C(C)=O)cc2)cc1 [AB00359127] | 18.9 µg/mL | > 25 µg/mL | –
CC1CCCCN1C(=O)c1ccc(NC(=O)c2ccccc2Cl)cc1 (centres unmarked) [AB00359707] | 11.4 µg/mL | > 25 µg/mL | –
COc1ccc(S(=O)(=O)N2CCC(C(=O)N3CCN(c4ccccc4)CC3)CC2)cc1Cl [AB00362388] | 17 µg/mL | > 25 µg/mL | –
C=CCN(CC=C)C(=O)c1ccc(OC)c(I)c1 [AB00362750] | 21 µg/mL | > 25 µg/mL | –
Fc1cnc(N2CCOCC2)nc1N1CCc2ccccc21 [AB00362810] | 21.1 µg/mL | > 25 µg/mL | –
S=C(c1ccc(OCc2cccc3ccccc23)cc1)N1CCOCC1 [AB00362891] | 23.4 µg/mL | > 25 µg/mL | –
CC1(C)Cc2c(sc(NC(=O)c3ccccc3Br)c2C(N)=O)CO1 [AB00363547] | 13.3 µg/mL | > 25 µg/mL | –
CCC(=O)Nc1ccc(C(=O)OCc2cccc(F)c2)cc1 [AB00363859] | 12.6 µg/mL | > 25 µg/mL | –
COc1ccc(-n2nnnc2SCCO)cc1 [AB00364099] | 19.2 µg/mL | > 25 µg/mL | –
COc1ccc(NC(=O)c2ccc(C)c(S(=O)(=O)Nc3ccccc3C)c2)cc1OC [AB00364640] | 11.5 µg/mL | > 25 µg/mL | –
CCOC(=O)c1ccc(NC(=O)Nc2ccccc2OC)cc1 [AB00365318] | 11.6 µg/mL | > 25 µg/mL | –
CC(Oc1ccc(-c2ccccc2)cc1)C(=O)Nc1nnc(C2CCCO2)s1 (centres unmarked) [AB00365647] | 19.3 µg/mL | > 25 µg/mL | –
O=C(Nc1c(F)cc(F)cc1Br)c1ccc(Cl)s1 [AB00366410] | 20.2 µg/mL | > 25 µg/mL | –
O=C(NC1=NCCS1)c1cc2c(s1)CCCCCC2 [AB00367559] | 19.6 µg/mL | > 25 µg/mL | –
CCn1c(=O)n(CC)c2cc(NC(=O)c3ccccc3Cl)c(Br)cc21 [AB00369510] | 10.4 µg/mL | > 25 µg/mL | –
CSc1ccc(Cl)c(C(=O)Nc2ccc(Cc3ccccn3)cc2)c1 [AB00369798] | 11.6 µg/mL | > 25 µg/mL | –
O=C(Nc1ccc2c(c1)ncn2C1CCCCC1)c1cccs1 [AB00369934] | 13.6 µg/mL | > 25 µg/mL | –
c1coc(-c2nn3c(Cn4nnc5ccccc54)nnc3s2)c1 [AB00370063] | 1.97 µg/mL | > 25 µg/mL | –
O=S(=O)(Nc1ccc(-c2cn3cccnc3n2)cc1)c1cc(Cl)ccc1Cl [AB00370838] | 22.5 µg/mL | > 25 µg/mL | –
Cn1c(SCC(=O)N2c3ccccc3SC3C=CC=CC32)nnc1-c1ccccc1 (centres unmarked) [AB00370949] | 18.8 µg/mL | > 25 µg/mL | –

Structure (SMILES) | EC50 [1] | CC50 at 6 days ([2]; HEp-2 cells) | CC50 at 6 days [2] [µg/mL]
Cc1cc(C)n2nc(C(=O)Nc3cnn(C45CC6CC(CC(C6)C4)C5)c3)cc2n1 [AB00371387] | 12.7 µg/mL | > 25 µg/mL | –
Cc1cc(SCCC#N)nc2ccccc12 [AB00371866] | 13.7 µg/mL | > 25 µg/mL | –
CCOc1nc2sc3c(c2c2ncnn12)CCCC3 [AB00372085] | 11.6 µg/mL | > 25 µg/mL | –
O=c1c2c3c(sc2ncn1CCO)CCCC3 [AB00372624] | 23.6 µg/mL | > 25 µg/mL | –
N#CCCCCN1c2cccc3cccc(c23)S1(=O)=O [AB00373143] | 14.3 µg/mL | > 25 µg/mL | –
CCOC(=O)CCC(NC(=O)c1cnc(NCc2cnc3nc(N)nc(N)c3c2C)s1)C(=O)OCC (centres unmarked) [AB00375242] | 42 µM | > 50 µM | –
OCc1cccc2c(Br)cccc12 [AB00375379] | 39.2 µM | > 50 µM | –
N#Cc1c(Cl)nc(N)c(N)c1C(F)(F)F [AB00430151] | 38.4 µM | > 50 µM | –
NC(=O)c1ncn([C@@H]2O[C@H](CO)[C@@H](O)[C@H]2O)n1 [AB00430481] | 38.8 µM | > 50 µM | –
CNc1ncnc2c1ncn2[C@H]1C[C@@H](CO)[C@H](O)[C@@H]1O [AB00430484] | 33.7 µM | > 50 µM | –
Nc1c(N=Nc2ccc(-c3ccc(N=Nc4cc(S(=O)(=O)O)c5ccccc5c4N)cc3)cc2)cc(S(=O)(=O)O)c2ccccc12 [AB00443629] | 35.6 µM | > 50 µM | –
CC(C)CCCC(C)C1CC[C@@H]2[C@@H]3CC[C@@H]4CC(CCC=C(c5cc(Cl)c(O)c(C(=O)O)c5)c5cc(Cl)c(O)c(C(=O)O)c5)CC[C@]4(C)[C@@H]3CC[C@]12C (some centres unmarked) [AB00443953] | 21.3 µM | > 50 µM | –
O=S(=O)(O)c1cc(/N=N/c2cc(S(=O)(=O)O)c3cccnc3c2O)ccc1CCc1ccc(/N=N/c2cc(S(=O)(=O)O)c3cccnc3c2S)cc1S(=O)(=O)O [AB00444131] | 18.8 µM | > 50 µM | –
O=S(=O)(O)c1cc(/N=N/c2cc(S(=O)(=O)O)c3cccnc3c2O)ccc1/C=C/c1ccc(/N=N/c2cc(S(=O)(=O)O)c3cccnc3c2O)cc1S(=O)(=O)O [AB00444372] | 10.9 µM | > 50 µM | –
CCOc1ccc(Nc2nc3cc(S(=O)(=O)N(CC)CC)ccc3o2)cc1 [AB00536652] | 38.7 µM | > 50 µM | –
O=c1c2c([nH]c3ccccc13)-c1ccccc1-n1c(nc3ccccc3c1=O)C2 [AB00700560] | 11.3 µM | > 50 µM | –
Cc1cc(C)n(-c2ccc(C(=O)Nc3cc(Cl)ccc3C)cc2)n1 [AB00712667] | 24 µM | > 50 µM | –
CCOC(=O)C1=C(C)NC(C)=C(C(=O)OCC)C1C(=O)OCC(=O)Nc1c(Cl)cccc1Cl [AB00712684] | 21.9 µM | > 50 µM | –
CSc1ccc(Cl)c(C(=O)Nc2ccc(N3CCCCC3)cc2)c1 [AB00717474] | 12.2 µM | > 50 µM | –
